Measured values taken from patent US7214673B2, “Piperazine substituted aryl benzodiazepines and their use as dopamine receptor antagonists for the treatment of psychotic disorders” (Eli Lilly and Company, priority 2002, dated 2007).
Where a name gives a salt, the structure may show the parent alone.

Compound	melting point
Cc1cc2c(s1)Nc1ccccc1N=C2N1CCN(C)[C@@H](CCc2ccc(C(F)(F)F)cc2)C1 [Example 396, 10-((S)-3-[2-(4-Trifluoromethyl-phenyl)-ethyl]-4-methyl-piperazin-1-yl)-2-methyl-4H-3-thia-4,9-diaza-benzo[f]azulene]	72 °C (dec.)
COc1ccc(CC[C@H]2CN(C3=Nc4ccccc4Nc4sc(C)cc43)CCN2)cc1 (as salt: hydrochloride) [Example 179, 10-((S)-3-(2-(4-methoxy-phenyl)-ethyl)-piperazin-1-yl)-2-methyl-4H-3-thia-4,9-diaza-benzo[f]azulene dihydrochloride]	213 °C (dec.)
Cc1cc2c(s1)Nc1ccccc1N=C2N1CCN(C)[C@@H](CCc2ccc(Cl)cc2)C1 [Example 390, 10-((S)-3-[2-(4-Chloro-phenyl)-ethyl]-4-methyl-piperazin-1-yl)-2-methyl-4H-3-thia-4,9-diaza-benzo[f]azulene]	79 °C (dec.)
Cc1cc2c(s1)Nc1ccccc1N=C2N1CCN[C@@H](CCc2ccc(F)cc2F)C1 [Example 399, 10-((S)-3-[2-(2,4-Difluoro-phenyl)-ethyl]-piperazin-1-yl)-2-methyl-4H-3-thia-4,9-diaza-benzo[f]azulene]	69 °C (dec.)
CC(C)c1nc2c(s1)Nc1ccccc1N=C2N1CCN(C)[C@@H](CCc2ccccc2)C1 (as salt: hydrochloride)	210 °C
COc1ccccc1C[C@H]1CN(C2=Nc3ccccc3Nc3sc(C)nc32)CCN1C (as salt: hydrochloride)	185 °C
Cc1cc2c(s1)Nc1ccccc1N=C2N1CCN[C@@H](CCc2ccc(Cl)cc2)C1 [Example 388, 10-((S)-3-[2-(4-Chloro-phenyl)-ethyl]-piperazin-1-yl)-2-methyl-4H-3-thia-4,9-diaza-benzo[f]azulene]	91 °C (dec.)
Cc1cc2c(s1)Nc1ccccc1N=C2N1CCN(C)[C@@H](CCc2ccncc2)C1 (as salt: hydrochloride) (hydrate or solvate)	214 to 217 °C (dec.)
COc1ccc(CC[C@H]2CN(C3=Nc4ccccc4Nc4sc(C(C)C)nc43)CCN2C)cc1 (as salt: hydrochloride)	190 °C
Cc1ccc2c(c1)Nc1ccccc1N=C2N1CCN(C)[C@@H](CCc2ccccc2)C1 [Example 576, 3-Methyl-11-[4-methyl-(S)-3-phenethyl-piperazin-1-yl]-5H-dibenzo[b,e][1,4]diazepine]	65 °C (dec.)
Cc1nc2c(s1)Nc1ccccc1N=C2N1CCN(C)[C@@H](CCc2cccc(F)c2)C1 (as salt: hydrochloride) [Example 479, (S)-10-{3-[2-(3-Fluoro-phenyl)-ethyl]-4-methyl-piperazin-1-yl}-2-methyl-4H-3-thia-1,4,9-triaza-benzo[f]azulene dihydrochloride]	230 °C
Cc1cc2c(s1)Nc1ccccc1N=C2N1CCN[C@@H](CCc2cccc(Cl)c2)C1 [Example 387, 10-((S)-3-[2-(3-Chloro-phenyl)-ethyl]-piperazin-1-yl)-2-methyl-4H-3-thia-4,9-diaza-benzo[f]azulene]	68 to 74 °C (dec.)
COc1ccccc1CC[C@H]1CN(C2=Nc3ccccc3Nc3sc(C)cc32)CCN1 (as salt: hydrochloride) [Example 181, 10-((S)-3-(2-(2-Methoxy-phenyl)-ethyl)-piperazin-1-yl)-2-methyl-4H-3-thia-4,9-diaza-benzo[f]azulene dihydrochloride]	202 °C (dec.)
Cc1ccc2c(c1)C(N1CCN(C)[C@@H](CCc3ccccc3)C1)=Nc1ccccc1N2 [Example 581, 2-Methyl-11-[4-methyl-(S)-3-phenethyl-piperazin-1-yl]-5H-dibenzo[b,e][1,4]diazepine]	65 °C (dec.)
Cc1cc2c(s1)Nc1ccccc1N=C2N1CCN(C)[C@@H](CCc2cccc(Cl)c2)C1 [Example 391, 10-((S)-3-[2-(3-Chloro-phenyl)-ethyl]-4-methyl-piperazin-1-yl)-2-methyl-4H-3-thia-4,9-diaza-benzo[f]azulene]	69 °C (dec.)
Cc1cc2c(s1)Nc1ccccc1N=C2N1CCN[C@@H](CCc2cccc(C(F)(F)F)c2)C1 [Example 395, 10-((S)-3-[2-(3-Trifluoromethyl-phenyl)-ethyl]-piperazin-1-yl)-2-methyl-4H-3-thia-4,9-diaza-benzo[f]azulene]	69 °C (dec.)
Cc1nc2c(s1)Nc1ccccc1N=C2N1CCN[C@@H](CCc2ccccc2)C1 (as salt: hydrochloride) (hydrate or solvate) [Example 460, (S)-2-Methyl-10-(3-phenethyl-piperazin-1-yl)-4H-3-thia-1,4,9-triaza-benzo[f]azulene dihydrochloride hemihydrate]	230 °C
Cc1cc2c(s1)Nc1ccccc1N=C2N1CCN[C@@H](CCc2ccccc2Cl)C1 [Example 389, 10-((S)-3-[2-(2-Chloro-phenyl)-ethyl]-piperazin-l-yl)-2-methyl-4H-3-thia-4,9-diaza-benzo[f]azulene]	72 °C (dec.)
Cc1nc2c(s1)Nc1ccccc1N=C2N1CCN(C)[C@@H](CCc2ccccc2)C1 (as salt: hydrochloride) (hydrate or solvate) [Example 461, (S)-2-Methyl-10-(4-methyl-3-phenethyl-piperazin-1-yl)-4H-3-thia-1,4,9-triaza-benzo[f]azulene dihydrochloride hemihydrate]	220 °C

Compound	melting point
Cc1cc2c(s1)Nc1ccccc1N=C2N1CCN[C@@H](CCc2cccc(F)c2)C1 (as salt: hydrochloride) [Example 177, 10-((S)-3-(2-(3-Fluoro-phenyl)-ethyl)-piperazin-1-yl))-2-methyl-4H-3-thia-4,9-diaza-benzo[f]azulene dihydrochloride]	211 °C (dec.)
Cc1cc2c(s1)Nc1ccccc1N=C2N1CCN[C@@H](CCc2ccccn2)C1 (as salt: hydrochloride) [Example 132]	220 to 224 °C (dec.)
Cc1ccc2c(c1)C(N1CCN[C@@H](CCc3ccccc3)C1)=Nc1ccccc1N2 [Example 580, 2-Methyl-11-[(S)-3-phenethyl-piperazin-1-yl]-5H-dibenzo[b,e][1,4]diazepine]	67 °C (dec.)
Cc1cc2c(s1)Nc1ccccc1N=C2N1CCN(C)[C@@H](CCc2ccoc2)C1.Cl.Cl	198 °C (dec.)
Cc1ccc2c(c1)Nc1ccccc1N=C2N1CCN[C@@H](CCc2cccc(F)c2)C1 [Example 577, 11-{(S)-3-[2-(3-Fluoro-phenyl)-ethyl]-piperazin-1-yl}-3-methyl-5H-dibenzo[b,e][1,4]diazepine]	81 °C (dec.)
COc1ccc(CC[C@H]2CN(C3=Nc4ccccc4Nc4sc(C)cc43)CCN2C)cc1 (as salt: hydrochloride) [Example 185, 10-((S)-3-(2-(4-Methoxy-phenyl)-ethyl)-4-methyl-piperazin-1-yl)-2-methyl-4H-3-thia-4,9-diaza-benzo[f]azulene dihydrochloride]	239 °C (dec.)
Cc1cc2c(s1)Nc1ccccc1N=C2N1CCN(C)[C@@H](CCc2ccc(F)cc2)C1 (as salt: hydrochloride) [Example 182, 10-((S)-3-(2-(4-Fluoro-phenyl)-ethyl]-4-methyl-piperazin-1-yl)-2-methyl-4H-3-thia-4,9-diaza-benzo[f]azulene dihydrochloride]	253 °C (dec.)
COc1ccc(CC[C@H]2CN(C3=Nc4cc(F)ccc4Nc4sc(C)cc43)CCN2C)cc1.Cl (stereo in doubt)	180 to 182 °C
Cc1cc2c(s1)Nc1ccccc1N=C2N1CCN(C)[C@@H](CCc2ccc3ccccc3c2)C1 (as salt: hydrochloride)	209 °C (dec.)
Clc1ccc2c(c1)N=C(N1CCN[C@@H](Cc3ccccc3)C1)c1ccccc1N2 [Example 585, 11-(3-(S)-Benzyl-piperazin-1-yl)-8-chloro-5H-dibenzo[b,e][1,4]diazepine]	79 to 92 °C
Cc1cc2c(s1)Nc1ccccc1N=C2N1CCN(C)[C@@H](CCc2cccc(F)c2)C1 (as salt: hydrochloride) [Example 183, 10-((S)-3-(2-(3-Fluoro-phenyl)-ethyl)-4-methyl-piperazin-1-yl)-2-methyl-4H-3-thia-4,9-diaza-benzo[f]azulene dihydrochloride]	225 °C (dec.)
COc1cccc(CC[C@H]2CN(C3=Nc4ccccc4Nc4sc(C)cc43)CCN2)c1 (as salt: hydrochloride) [Example 180, 10-((S)-3-(2-(3-Methoxy-phenyl)-ethyl)-piperazin-1-yl)-2-methyl-4H-3-thia-4,9-diaza-benzo[f]azulene dihydrochloride]	201 °C (dec.)
Cc1cc2c(s1)Nc1ccccc1N=C2N1CCN[C@@H](CCc2ccc(C(F)(F)F)cc2)C1 [Example 393, 10-((S)-3-[2-(4-Trifluoromethyl-phenyl)-ethyl]-piperazin-1-yl)-2-methyl-4H-3-thia-4,9-diaza-benzo[f]azulene]	78 °C (dec.)
Cc1cc2c(s1)Nc1ccccc1N=C2N1CCN[C@@H](CCc2ccccc2C(F)(F)F)C1 [Example 394, 10-((S)-3-[2-(2-Trifluoromethyl-phenyl)-ethyl]-piperazin-1-yl)-2-methyl-4H-3-thia-4,9-diaza-benzo[f]azulene]	73 °C (dec.)
Cc1nc2c(s1)Nc1ccccc1N=C2N1CCN(C)[C@@H](CCc2ccc(F)cc2)C1 (as salt: hydrochloride)	230 °C
Cc1ccc2c(c1)Nc1ccccc1N=C2N1CCN[C@@H](CCc2ccccc2)C1 [Example 575, 3-Methyl-11-[(S)-3-phenethyl-piperazin-1-yl]-5H-dibenzo[b,e][1,4]diazepine]	64 to 80 °C
CC(C)n1nc2c(n1)C(N1CCN[C@@H](CCc3ccccc3)C1)=Nc1ccccc1N2 (as salt: hydrochloride) (hydrate or solvate) [Example 594, (S)-2-Isopropyl-10-(3-phenethyl-piperazin-1-yl)-2,4-dihydro-1,2,3,4.9-pentaaza-benzo[f]azulene dihydrochloride hemihydrate]	210 °C
Cc1ccc2c(c1)C(N1CCN(C)CC1)=Nc1ccccc1N2 [Example 579]	170 to 177 °C (dec.)
Cc1cc2c(s1)Nc1ccccc1N=C2N1CCN(C)[C@@H](CCc2ccccc2)C1.Cl	225 °C
